In experiment [1] the target is T1, 5-HT2 receptors in A7r5 rat vascular smooth muscle cells (Rattus norvegicus, UniProt P14842).
T1 construct: endogenous in cells; host or cells: A7r5 rat vascular smooth muscle cells
In words: 5-HT2 functional assay: [Ca2+]i mobilization (FLIPR). The class given is cell-based. The conditions noted are these: for Emax: read-out: Efficacy (Emax, %). As for the experimental part:
5-HT2 Functional Assay: [Ca^2+]i Mobilization
The receptor-mediated mobilization on intracellular calcium ([Ca^2+]i) was studied using the Fluorescence Imaging Plate Reader (FLIPR) instrument. Rat vascular smooth muscle cells, A7r5, were grown in a normal media of DMEM/10% FBS and 10 μg/mL gentamycin. Confluent cell monolayers were trypsinized, pelleted, and re-suspended in normal media. Cells were seeded in a 50 μL volume at a density of 20,000 cells/well in a black wall, 96-well tissue culture plate and grown for 2 days.
On the day of the experiment, one vial of FLIPR Calcium Assay Kit dye was re-suspended in 50 mL of a FLIPR buffer consisting of Hank's Balanced Salt Solution (HBSS), 20 mM HEPES, and 2.5 mM probenecid, pH 7.4. Cells were loaded with the calcium-sensitive dye by addition of an equal volume (50 μL) to each well of the 96-well plate and incubated with dye for 1 h at 23° C.
Compounds were diluted 1:50 in 20% DMSO/20% ethanol. For “hit” screening, compounds were further diluted 1:10 in FLIPR buffer and tested at a final concentration of 10 μM.
The compound plate and cell plate were placed in the FLIPR instrument. At the beginning of an experimental run, a signal test was performed to check the basal fluorescence signal from the dye-loaded cells and the uniformity of the signal across the plate. The basal fluorescence was adjusted between 8000-12000 counts by modifying the exposure time, the camera F-stop, or the laser power. Instrument settings for a typical assay were the following: laser power 0.3-0.6 W, camera F-stop F/2, and exposure time 0.4 sec. An aliquot (25 μL) of the test compound was added to the existing 100 μL dye-loaded cells at a dispensing speed of 50 μL/sec. Fluorescence data were collected in real-time at 1.0 sec intervals for the first 60 secs and at 6.0 sec intervals for an additional 120 secs.

The target in the next experiment is brain 5-HT2 receptors (Rattus norvegicus, UniProt P14842). In words: 5-HT2 receptor binding assay ([125I]DOI competition). The settings on record: competition for [125I]DOI binding, rat or human cerebral cortex homogenates. As for the experimental part: 5-HT2 Receptor Binding Assay
Sequence of brain 5-HT2 receptors (P14842 whole entry): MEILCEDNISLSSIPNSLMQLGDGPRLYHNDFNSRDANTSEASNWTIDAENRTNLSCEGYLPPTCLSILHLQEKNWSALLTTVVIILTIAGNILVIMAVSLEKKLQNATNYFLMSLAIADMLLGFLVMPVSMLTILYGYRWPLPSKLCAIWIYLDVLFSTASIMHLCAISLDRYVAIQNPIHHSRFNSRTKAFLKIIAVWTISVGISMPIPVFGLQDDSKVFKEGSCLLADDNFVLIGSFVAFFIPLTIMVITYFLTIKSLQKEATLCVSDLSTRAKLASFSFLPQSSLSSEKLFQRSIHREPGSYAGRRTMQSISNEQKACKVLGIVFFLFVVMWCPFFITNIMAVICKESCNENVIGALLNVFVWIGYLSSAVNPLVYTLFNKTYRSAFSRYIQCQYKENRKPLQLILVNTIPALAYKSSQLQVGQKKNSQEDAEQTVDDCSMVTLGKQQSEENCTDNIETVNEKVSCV
The assay mixture is incubated for 1 hour at 23° C. in polypropylene tubes and the assays terminated by rapid vacuum filtration over Whatman GF/B glass fiber filters previously soaked in 0.3% polyethyleneimine using ice-cold buffer. Test compounds (at different concentrations) are substituted for methiothepin. Filter-bound radioactivity is determined by scintillation spectrometry on a beta counter. The data are analyzed using a non-linear, iterative curve-fitting computer program [Trends Pharmacol. Sci., 16, 413 (1995)] to determine the compound affinity parameter. The concentration of the compound needed to inhibit the [^125I]DOI binding by 50% of the maximum is termed the IC50 or Ki value.

[2] abbreviates: A7r5 cells, FLIPR, percentage of maximum 5-HT-induced response.
Setting [3] is: A7r5 cells, FLIPR, read-out: EC50, nM (5-HT2 functional, [Ca2+]i mobilization).

The values that follow come from patent US6933392B2, “Hydroxy substituted fused naphthyl-azoles and fused indeno-azoles and their use for the treatment of glaucoma” (Alcon, Inc., priority 2001, dated 2005).

Each structure is given as a SMILES string. Structures can show the parent of a compound that is named as a salt. Where two headings read alike, the source gives them in different places.

T1 sequence (P14842 whole entry): as above

Turning to `NCCc1c[nH]c2ccc(O)cc12` [Example 5-HT, 5-Hydroxytryptamine, reference compound], the Emax in experiment [1] (setting [2]) was 107%.
Turning to `CC(N)Cn1ncc2c1-c1cc(O)ccc1CC2` (stereo not shown) [Example 2, 1-(2-Aminopropyl)-4,5-dihydro-1H-benzo[g]indazol-8-ol Dihydrochloride], the Emax in experiment [1] (setting [2]) amounted to 46%. Also, the concentration for a half-maximal effect (EC50) in experiment [1] (setting [3]) is 103 nM.
In the case of `COc1cc(CC(C)N)c(OC)cc1I` (stereo not shown) [DOI, reference compound], the “Efficacy (Emax, %)” value in experiment [1] (setting [2]) was found to be 31%. Further, the EC50 in experiment [1] (setting [3]) was determined as 30.2 nM. The compound also showed an IC50 on brain 5-HT2 receptors of 0.33 nM.
For the compound `CC(N)Cn1ncc2c1-c1ccc(O)cc1C2` (stereo not shown) [Example 5, 1-(2-Aminopropyl)-1,4-dihydro-indeno[1,2-c]pyrazol-6-ol], the Emax in experiment [1] (setting [2]) turned out to be 64%. Further, the EC50 in experiment [1] (setting [3]) turned out to be 328 nM.
In the case of `CC(N)Cn1ncc2ccc3cc(O)ccc3c21` (stereo not shown) [Example 4, 1-(2-Aminopropyl)-2H-benzo[g]indazol-7-ol], the EC50 in experiment [1] worked out at 211 nM. Moreover, the Emax in experiment [1] (setting [2]) turned out to be 79%.

For orientation: Emax means the maximal effect, on the per cent scale that the assay sets. What is called EC50 is the concentration at which the effect is half-maximal. Broadly, the IC50 is the concentration needed to halve the response being measured.
